Source: patent US20090048310A1, “AGENT FOR PREVENTION/TREATMENT OF DISEASE CAUSED BY ACYCLOVIR-RESISTANT HERPESVIRUS” (ASTELLAS PHARMA INC., priority 2005, published 2009)

Legend:
HSV-1 strain WT-51 = experiment: Cutaneous HSV-1 infection mouse model; type: in vivo, HR-1 hairless mouse; settings: oral, 10 mg/kg twice a day for 5 days, scores for 17 days
Procedure: Using a cutaneous HSV-1 infection mouse model prepared in reference to the method of H. Machida et al. (Antiviral Res., 1992, 17, 133-143), the in vivo […] of the compounds of the present invention was tested using an animal model. The skin of each HR-1 hairless mouse [female, 7 weeks of age] was scratched lengthwise and breadthwise several times using a needle and a virus suspension (HSV-1 strain WT-51, 1.5×10^4 PFU/15 μl) was dropped to the scarified region for infection, while anesthetized with diethyl ether.
Tested compounds were administered orally as a methyl cellulose suspension, except for compounds marked with asterisk which were dissolved in 20% Cremophor EL (Nacalai Tesque)/20% polyethylene glycol (PEG) 400/60% H2O solution, starting at 3 hours after the infection, and then at a dose of 10 mg/kg twice a day for 5 days. The symptom of the skin lesion caused by HSV-1 infection were classified in the following scores for 17 days:
Score 0: no signs of infection.
Score 1: localized, barely perceptible small vesicles.
Score 2: slight vesicle spread.
Score 3: large patches of vesicles formed.
Score 4: zosteriform vesicles.
Score 5: large patches of ulcers formed.
Score 6: zosteriform with severe large ulcers.
Score 7: hind limb paralysis or death.
The AUC value was calculated from each group's mean disease score, and the disease inhibitory rate of the group administered with each test compound to the placebo group was calculated using the AUC.

ACV-resistant HSV-1 = ACV-resistant HSV-1 infection lethal model in nude mice; type: in vivo, nude mouse (CD-1(ICR)-nu/nu); settings: 100 mg/kg oral twice a day for 15 days
Procedure: ACV-resistant HSV-1 (3×10^6 pfu) was inoculated into the peritoneal cavity of each nude mouse (CD-1(ICR)-nu/nu, […], female, Charles River Japan) to cause infection with the virus. Each compound to be tested was made into a methyl cellulose suspension and orally administered at a dose of 100 mg/kg, twice a day for 15 days starting 1 hour after the infection (from 0 to 14 days after the infection).
During 17 days after the infection, death of the mice caused by ACV-resistant HSV-1 infection was observed every day, and the number of survived animals was counted.

[1] = dissolved in 20% Cremophor EL/20% PEG 400/60% H2O (asterisk)

Cc1ccc(N(CC(=O)Nc2ccc(-c3ncon3)cc2)C(=O)C2CCS(=O)(=O)CC2)c(C)c1F [Preparation 39, N-(3-fluoro-2,4-dimethylphenyl)-N-(2-{[4-(1,2,4-oxadiazol-3-yl)phenyl]amino}-2-oxoethyl)tetrahydro-2H-thiopyran-4-carboxamide 1,1-dioxide]
Inhibition ratio (%) (disease inhibitory rate vs placebo from AUC of mean disease score) (HSV-1 strain WT-51; methyl cellulose suspension): 80%

Cc1cccc(C)c1N(CC(=O)Nc1ccc(-c2cocn2)cc1)C(=O)C1CCS(=O)(=O)CC1 [Preparation 1, N-(2,6-dimethylphenyl)-N-(2-{[4-(1,3-oxazol-4-yl)phenyl]amino}-2-oxoethyl)tetrahydro-2H-thiopyran-4-carboxamide 1,1-dioxide]
Inhibition ratio (%) (disease inhibitory rate vs placebo from AUC of mean disease score) (HSV-1 strain WT-51; [1]): * 93%

Cc1cc(N(CC(=O)Nc2ccc(-c3cocn3)cc2)C(=O)C2CCS(=O)(=O)CC2)ccc1Cl [Preparation 13, N-(4-chloro-3-methylphenyl)-N-(2-{[4-(1,3-oxazol-4-yl)phenyl]amino}-2-oxoethyl)tetrahydro-2H-thiopyran-4-carboxamide 1,1-dioxide]
Inhibition ratio (%) (disease inhibitory rate vs placebo from AUC of mean disease score) (HSV-1 strain WT-51; methyl cellulose suspension): 89%

Cc1ccccc1N(CC(=O)Nc1ccc(-c2cocn2)cc1)C(=O)C1CCS(=O)(=O)CC1 [Preparation 4, N-(2-methylphenyl)-N-(2-{[4-(1,3-oxazol-4-yl)phenyl]amino}-2-oxoethyl)tetrahydro-2H-thiopyran-4-carboxamide 1,1-dioxide]
Inhibition ratio (%) (disease inhibitory rate vs placebo from AUC of mean disease score) (HSV-1 strain WT-51; methyl cellulose suspension): 77%

Cc1c(F)cc(N(CC(=O)Nc2ccc(-c3cocn3)cc2)C(=O)C2CCS(=O)(=O)CC2)cc1F [Preparation 19, N-(3,5-difluoro-4-methylphenyl)-N-(2-{[4-(1,3-oxazol-4-yl)phenyl]amino}-2-oxoethyl)tetrahydro-2H-thiopyran-4-carboxamide 1,1-dioxide]
Inhibition ratio (%) (disease inhibitory rate vs placebo from AUC of mean disease score) (HSV-1 strain WT-51; methyl cellulose suspension): 71%

O=C(CN(C(=O)C1CCS(=O)(=O)CC1)c1ccc2c(c1)CCC2)Nc1ccc(-c2cocn2)cc1 [Preparation 11, N-(2,3-dihydro-1H-inden-5-yl)-N-(2-{[4-(1,3-oxazol-4-yl)phenyl]amino}-2-oxoethyl)tetrahydro-2H-thiopyran-4-carboxamide 1,1-dioxide]
Inhibition ratio (%) (disease inhibitory rate vs placebo from AUC of mean disease score) (HSV-1 strain WT-51; methyl cellulose suspension): 92%

Cc1ccc(N(CC(=O)Nc2ccc(-c3cocn3)cc2)C(=O)C2CCS(=O)(=O)CC2)c(C)c1F [Preparation 17, N-(3-fluoro-2,4-dimethylphenyl)-N-(2-{[4-(1,3-oxazol-4-yl)phenyl]amino}-2-oxoethyl)tetrahydro-2H-thiopyran-4-carboxamide 1,1-dioxide]
Inhibition ratio (%) (disease inhibitory rate vs placebo from AUC of mean disease score) (HSV-1 strain WT-51; methyl cellulose suspension): 94%

Cc1ccc(N(CC(=O)Nc2ccc(-c3cocn3)cc2)C(=O)C2CCS(=O)(=O)CC2)cc1C [Preparation 8, N-(3,4-dimethylphenyl)-N-(2-{[4-(1,3-oxazol-4-yl)phenyl]amino}-2-oxoethyl)tetrahydro-2H-thiopyran-4-carboxamide 1,1-dioxide]
Inhibition ratio (%) (disease inhibitory rate vs placebo from AUC of mean disease score) (HSV-1 strain WT-51; methyl cellulose suspension): 91%

Cc1ccc(N(CC(=O)Nc2ccc(-c3ncon3)cc2)C(=O)C2CCS(=O)(=O)CC2)c(C)c1 [Preparation 25, N-(2,4-dimethylphenyl)-N-(2-{[4-(1,2,4-oxadiazol-3-yl)phenyl]amino}-2-oxoethyl)tetrahydro-2H-thiopyran-4-carboxamide 1,1-dioxide]
Inhibition ratio (%) (disease inhibitory rate vs placebo from AUC of mean disease score) (HSV-1 strain WT-51; [1]): * 70%

COc1ccc(N(CC(=O)Nc2ccc(-c3csc(N)n3)cc2)C(=O)C2CCS(=O)(=O)CC2)cc1 [Comparative compound B, reference compound]
Inhibition ratio (%) (disease inhibitory rate vs placebo from AUC of mean disease score) (HSV-1 strain WT-51; methyl cellulose suspension): 2%

Nc1nc(-c2ccc(NC(=O)CN(C(=O)C3CCS(=O)(=O)CC3)c3ccc4c(c3)CCC4)cc2)cs1 [Comparative compound D, reference compound]
Inhibition ratio (%) (disease inhibitory rate vs placebo from AUC of mean disease score) (HSV-1 strain WT-51; methyl cellulose suspension): 43%

Cc1ccc(N(CC(=O)Nc2ccc(-c3cocn3)cc2)C(=O)C2CCS(=O)(=O)CC2)cc1F [Preparation 14, N-(3-fluoro-4-methylphenyl)-N-(2-{[4-(1,3-oxazol-4-yl)phenyl]amino}-2-oxoethyl)tetrahydro-2H-thiopyran-4-carboxamide 1,1-dioxide]
Inhibition ratio (%) (disease inhibitory rate vs placebo from AUC of mean disease score) (HSV-1 strain WT-51; methyl cellulose suspension): 98%

Cc1ccc(N(CC(=O)Nc2ccc(-c3cocn3)cc2)C(=O)C2CCS(=O)(=O)CC2)c(C)c1 [Preparation 6, N-(2,4-dimethylphenyl)-N-(2-{[4-(1,3-oxazol-4-yl)phenyl]amino}-2-oxoethyl)tetrahydro-2H-thiopyran-4-carboxamide 1,1-dioxide]
Inhibition ratio (%) (disease inhibitory rate vs placebo from AUC of mean disease score) (HSV-1 strain WT-51; methyl cellulose suspension): 92%

Cc1cc(F)cc(C)c1N(CC(=O)Nc1ccc(-c2ncon2)cc1)C(=O)C1CCS(=O)(=O)CC1 [Preparation 31, N-(4-fluoro-2,6-dimethylphenyl)-N-(2-{[4-(1,2,4-oxadiazol-3-yl)phenyl]amino}-2-oxoethyl)tetrahydro-2H-thiopyran-4-carboxamide 1,1-dioxide]
Inhibition ratio (%) (disease inhibitory rate vs placebo from AUC of mean disease score) (HSV-1 strain WT-51; [1]): * 86%

Cc1ccc(N(CC(=O)Nc2ccc(-c3ncon3)cc2)C(=O)C2CCS(=O)(=O)CC2)cc1F [Preparation 35, N-(3-fluoro-4-methylphenyl)-N-(2-{[4-(1,2,4-oxadiazol-3-yl)phenyl]amino}-2-oxoethyl)tetrahydro-2H-thiopyran-4-carboxamide 1,1-dioxide]
Inhibition ratio (%) (disease inhibitory rate vs placebo from AUC of mean disease score) (HSV-1 strain WT-51; methyl cellulose suspension): 82%

Cc1cc(N(CC(=O)Nc2ccc(-c3ncon3)cc2)C(=O)C2CCS(=O)(=O)CC2)ccc1Cl [Preparation 37, N-(4-chloro-3-methylphenyl)-N-(2-{[4-(1,2,4-oxadiazol-3-yl)phenyl]amino}-2-oxoethyl)tetrahydro-2H-thiopyran-4-carboxamide 1,1-dioxide]
Inhibition ratio (%) (disease inhibitory rate vs placebo from AUC of mean disease score) (HSV-1 strain WT-51; methyl cellulose suspension): 100%

O=C(CN(C(=O)C1CCS(=O)(=O)CC1)c1ccc2c(c1)CCC2)Nc1ccc(-c2ncon2)cc1 [Preparation 33, N-(2,3-dihydro-1H-inden-5-yl)-N-(2-{[4-(1,2,4-oxadiazol-3-yl)phenyl]amino}-2-oxoethyl)tetrahydro-2H-thiopyran-4-carboxamide 1,1-dioxide]
Inhibition ratio (%) (disease inhibitory rate vs placebo from AUC of mean disease score) (HSV-1 strain WT-51; methyl cellulose suspension): 79%

Cc1ccc(N(CC(=O)Nc2ccc(-c3cocn3)cc2)C(=O)C2CCS(=O)(=O)CC2)c(F)c1 [Preparation 20, N-(2-fluoro-4-methylphenyl)-N-(2-{[4-(1,3-oxazol-4-yl)phenyl]amino}-2-oxoethyl)tetrahydro-2H-thiopyran-4-carboxamide 1,1-dioxide]
Inhibition ratio (%) (disease inhibitory rate vs placebo from AUC of mean disease score) (HSV-1 strain WT-51; methyl cellulose suspension): 91%

COc1ccc(N(CC(=O)Nc2ccc(-c3csc(N)n3)cc2)C(=O)C2CCC(O)CC2)cc1 (stereo not drawn) [Comparative compound C, reference compound]
Inhibition ratio (%) (disease inhibitory rate vs placebo from AUC of mean disease score) (HSV-1 strain WT-51; methyl cellulose suspension): 44%

Nc1nc(-c2ccc(NC(=O)CN(C(=O)c3ccc(F)cc3)c3ccc4ncsc4c3)cc2)cs1 [Comparative compound A, reference compound]
Inhibition ratio (%) (disease inhibitory rate vs placebo from AUC of mean disease score) (HSV-1 strain WT-51; methyl cellulose suspension): 38%

CC(C)[C@H](N)C(=O)OCCOCn1cnc2c(=O)nc(N)[nH]c21 [VCV, valcyclovir, reference compound]
death suppressing effect (in words) (ACV-resistant HSV-1; 17 days after infection): clear death suppressing effect was not found | The number of survived animals (n = 10) (ACV-resistant HSV-1; day 0 after infection): 10 | The number of survived animals (n = 10) (ACV-resistant HSV-1; day 1 after infection): 10 | The number of survived animals (n = 10) (ACV-resistant HSV-1; day 2 after infection): 10 | The number of survived animals (n = 10) (ACV-resistant HSV-1; day 4 after infection): 10 | The number of survived animals (n = 10) (ACV-resistant HSV-1; day 5 after infection): 10 | The number of survived animals (n = 10) (ACV-resistant HSV-1; day 6 after infection): 10 | The number of survived animals (n = 10) (ACV-resistant HSV-1; day 7 after infection): 9 | The number of survived animals (n = 10) (ACV-resistant HSV-1; day 8 after infection): 8 | The number of survived animals (n = 10) (ACV-resistant HSV-1; day 9 after infection): 4 | The number of survived animals (n = 10) (ACV-resistant HSV-1; day 10 after infection): 2 | The number of survived animals (n = 10) (ACV-resistant HSV-1; day 11 after infection): 2 | The number of survived animals (n = 10) (ACV-resistant HSV-1; day 12 after infection): 2 | The number of survived animals (n = 10) (ACV-resistant HSV-1; day 14 after infection): 2 | The number of survived animals (n = 10) (ACV-resistant HSV-1; day 16 after infection): 2 | The number of survived animals (n = 10) (ACV-resistant HSV-1; day 17 after infection): 2
